Experimental data published in article PMC9388626, “STUB1 is an intracellular checkpoint for interferon gamma sensing” (Scientific Reports, 2022).

Tests used:
DU145 cells [1] = assay: Growth inhibition, CellTiter-Fluor (live-cell protease activity); type: cell-based, human; design: scale not given here; conditions: 10 ng ml-1 each, 6-day
Protocol: (§1) Parental and CRISPR-edited tumour cells were seeded in a cell density of 1800 (DU145), 2000 (PC-3), or 10,000 (MCF7) per well in 96-well CellCarrier plate (PelkinElmer, #6005550) filled with 50 µl culture media + 10% FBS. After 20–24 h incubation, the cells were treated with 10 ng ml^−1 of recombinant human IFNγ (R&D Systems, 285-IF-100), 10 ng ml^−1 of recombinant human TNFα (R&D Systems, 210-TA-020/CF) or a combination of both, by adding an equal volume of the complete culture media containing the cytokines. After incubating for 6 days without media change, the CellTiter-Glo 2.0 (Promega, G9243) or CellTiter-Fluor (Promega, G6082) assay were performed according to manufacturer’ instructions. The luminescence or fluorescence (Ex: 380–400 nm, Em: 505 nm) were detected by Inifinte M1000 PRO (Tecan). For CellTiter-Fluor, triplicate wells without cells were included to determine background fluorescence and the signal average was used for background substraction.

MCF7 cells = assay: as above; type: cell-based, human; design: scale not given here; conditions: 10 ng ml-1 each, 6-day
Protocol: as §1

PC-3 cells [2] = assay: as above; type: cell-based, human; design: scale not given here; conditions: 10 ng ml-1 each, 6-day
Protocol: as §1

DU145 cells [3] = assay: Growth inhibition, CellTiter-Glo 2.0 (ATP); type: cell-based, human; conditions: DU145 (prostate), 10 ng ml^−1 each, 6 days
Protocol: as §1

PC-3 cells [4] = assay: Growth inhibition, CellTiter-Glo 2.0 (ATP); type: cell-based, human; conditions: PC-3 (prostate), 10 ng ml^−1 each, 6 days
Protocol: as §1

B16-F10 cells = assay: Western blot, IRF1, STAT1 and phospho-Tyr701-STAT1 at 2 h post IFNγ; type: cell-based, murine; conditions: Stub1-null B16-F10, 2 h
Protocol: Cells were dissociated from the wells with 0.25% trypsin (Gibco, 25200056). After rinsing with 0.5 ml PBS, the cell pellets were lysed with chilled cell lysis buffer (Cell Signaling Technology, #9803) supplemented with Halt protease inhibitor cocktail (Thermo Scientific, #78430) and phosphatase inhibitor (Sigma-Aldrich, # 4906837001) for 30 min with intermittent vortexing. The lysate was transferred into PCR-strip tubes and sonicated in a chilled water bath sonicator (QSonica). Lysates were clarified by centrifugation at 15,000 rpm at 4 °C for 15 min. Protein concentration was determined using BCA protein assay kit (Pierce, #23225). The lysates were mixed with LDS sample buffer (Life Technologies, NP0008) and sample reducing agent (Life Technologies, NP0009), followed by heating at 70 °C for 10 min to fully denature the protein. […] Membrane blots were pre-stained with total protein stain (LI-COR, # 926-11016) and imaged with Odyssey CLx. […] The blots were finally probed, for overnight at 4 °C, with the appropriate primary antibodies diluted in Intercept (TBS) blocking buffer supplemented with 0.1% (v/v) Tween-20, followed by the secondary antibodies (IRDye 800CW donkey anti-rabbit or anti-mouse IgG, LI-COR) for 1 h at room temperature. Fluorescent signals were imaged and quantified using Odyssey CLx and Image Studio v5.0. […]

[5] = tested on: B16-F10 tumour in C57BL/6 J mice; assay: Syngeneic B16-F10 model, GVAX then anti-PD-1; type: in vivo, mouse; conditions: N 15, in mm³ (unit assumed)
Protocol: Female C57BL/6 J mice (stock no: 000664, Jackson Laboratory) between 7–8 weeks of age weighing approximately 18–22 g were used for the study. […] One day after tumour inoculation, mice were dosed subcutaneously into the abdomen with 1.0 × 10^6 per 100 µl GM-CSF-secreting B16 (GVAX) cells that had been irradiated with 35 Gy from a ^137Cs source discharging 124 rads min^−1. GVAX treatment was repeated on day 4. […] The treatment was repeated on day 9, 12, and 15. The start of the study where tumour inoculation is conducted is designated as day 0.
Body weights were taken twice per week.

With IFNγ the “FC in live-cell protease activity relative to parental cells” value (DU145 cells [1]; DU145 PTPN2 sgRNA, replicate 1) was -0.09, the “FC in live-cell protease activity relative to parental cells” value (DU145 cells [1]; DU145 PTPN2 sgRNA, replicate 2) was -0.0242 and the “FC in live-cell protease activity relative to parental cells” value (DU145 cells [1]; DU145 PTPN2 sgRNA, replicate 3) was 0.13. The “FC in live-cell protease activity relative to parental cells” value (DU145 cells [1]; DU145 Parental, replicate 1) was -0.028, the “FC in live-cell protease activity relative to parental cells” value (DU145 cells [1]; DU145 Parental, replicate 2) was -0.0441 and the “FC in live-cell protease activity relative to parental cells” value (DU145 cells [1]; DU145 Parental, replicate 3) was 0.07. The “FC in live-cell protease activity relative to parental cells” value (DU145 cells [1]; DU145 STUB1 sgRNA, replicate 1) was -0.68, the “FC in live-cell protease activity relative to parental cells” value (DU145 cells [1]; DU145 STUB1 sgRNA, replicate 2) was -0.65 and the “FC in live-cell protease activity relative to parental cells” value (DU145 cells [1]; DU145 STUB1 sgRNA, replicate 3) was -0.52. For the same substance, the “FC in live-cell protease activity relative to parental cells” value (DU145 cells [1]; DU145 control sgRNA, replicate 1) was 0.0364, the “FC in live-cell protease activity relative to parental cells” value (DU145 cells [1]; DU145 control sgRNA, replicate 2) was 0.13 and the “FC in live-cell protease activity relative to parental cells” value (DU145 cells [1]; DU145 control sgRNA, replicate 3) was 0.0663. For the same substance, the “FC in live-cell protease activity relative to parental cells” value (MCF7 cells; MCF7 PTPN2 sgRNA, replicate 1) was -0.23, the “FC in live-cell protease activity relative to parental cells” value (MCF7 cells; MCF7 PTPN2 sgRNA, replicate 2) was -0.32 and the “FC in live-cell protease activity relative to parental cells” value (MCF7 cells; MCF7 PTPN2 sgRNA, replicate 3) was -0.34. The “FC in live-cell protease activity relative to parental cells” value (MCF7 cells; MCF7 Parental, replicate 1) was 0.0179, the “FC in live-cell protease activity relative to parental cells” value (MCF7 cells; MCF7 Parental, replicate 2) was 0.0179 and the “FC in live-cell protease activity relative to parental cells” value (MCF7 cells; MCF7 Parental, replicate 3) was -0.0365. The “FC in live-cell protease activity relative to parental cells” value (MCF7 cells; MCF7 STUB1 sgRNA, replicate 1) was -1.31, the “FC in live-cell protease activity relative to parental cells” value (MCF7 cells; MCF7 STUB1 sgRNA, replicate 2) was -1.18 and the “FC in live-cell protease activity relative to parental cells” value (MCF7 cells; MCF7 STUB1 sgRNA, replicate 3) was -1.16. For the same substance, the “FC in live-cell protease activity relative to parental cells” value (MCF7 cells; MCF7 control sgRNA, replicate 1) was -0.0449, the “FC in live-cell protease activity relative to parental cells” value (MCF7 cells; MCF7 control sgRNA, replicate 2) was 0.05 and the “FC in live-cell protease activity relative to parental cells” value (MCF7 cells; MCF7 control sgRNA, replicate 3) was 0.01. The “FC in live-cell protease activity relative to parental cells” value (PC-3 cells [2]; PC-3 PTPN2 sgRNA, replicate 1) was -0.90, the “FC in live-cell protease activity relative to parental cells” value (PC-3 cells [2]; PC-3 PTPN2 sgRNA, replicate 2) was -0.39 and the “FC in live-cell protease activity relative to parental cells” value (PC-3 cells [2]; PC-3 PTPN2 sgRNA, replicate 3) was -0.44. For the same substance, the “FC in live-cell protease activity relative to parental cells” value (PC-3 cells [2]; PC-3 Parental, replicate 1) was 0.02, the “FC in live-cell protease activity relative to parental cells” value (PC-3 cells [2]; PC-3 Parental, replicate 2) was -0.11 and the “FC in live-cell protease activity relative to parental cells” value (PC-3 cells [2]; PC-3 Parental, replicate 3) was 0.09. For the same substance, the “FC in live-cell protease activity relative to parental cells” value (PC-3 cells [2]; PC-3 STUB1 sgRNA, replicate 1) was -0.57, the “FC in live-cell protease activity relative to parental cells” value (PC-3 cells [2]; PC-3 STUB1 sgRNA, replicate 2) was -0.73 and the “FC in live-cell protease activity relative to parental cells” value (PC-3 cells [2]; PC-3 STUB1 sgRNA, replicate 3) was -0.72. The “FC in live-cell protease activity relative to parental cells” value (PC-3 cells [2]; PC-3 control sgRNA, replicate 1) was 0.0759, the “FC in live-cell protease activity relative to parental cells” value (PC-3 cells [2]; PC-3 control sgRNA, replicate 2) was -0.0157 and the “FC in live-cell protease activity relative to parental cells” value (PC-3 cells [2]; PC-3 control sgRNA, replicate 3) was -0.15. The “Growth inhibition of PTPN2- or STUB1-null cells” value (DU145 cells [3]) was “sensitized PTPN2- or STUB1-null prostate tumour cells to growth inhibition”, the “Growth inhibition of PTPN2- or STUB1-null cells” value (PC-3 cells [4]) was “sensitized PTPN2- or STUB1-null prostate tumour cells to growth inhibition” and the “Early induction of IRF1 and phospho-Tyr701-STAT1” value (B16-F10 cells) was “Loss of Stub1 lowers the stimulating threshold of IFNγ”.
With “gStub1 #1 (guide GCATTGCTAAGAAGAAGCGC; chemistry not given here)” the “tumour volume (Fig. 6b)” value ([5]; day 5, Mean) was 50.28, the “tumour volume (Fig. 6b)” value ([5]; day 8, Mean) was 251.2 and the “tumour volume (Fig. 6b)” value ([5]; day 10, Mean) was 457.3. For the same substance, the “tumour volume (Fig. 6b)” value ([5]; day 12, Mean) was 680.5, the “tumour volume (Fig. 6b)” value ([5]; day 14, Mean) was 866 and the “tumour volume (Fig. 6b)” value ([5]; day 16, Mean) was 944.8.
